The first test has as its system Utrophin A promoter linked to a luciferase reporter gene. The test can be described thus: Luciferase reporter assay (murine H2K cells). Type of test: cell-based. The following applies: Mus musculus, H2K mdx, luciferase level relative to control; H2K/mdx/Utro A reporter cells; compound 10 μM final concentration; read-out: Activity. As to the method: 1. Luciferase Reporter Assay (Murine H2K Cells)
The cell line used for the screen is an immortalized mdx mouse H2K cell line that has been stably transfected with a plasmid containing […] fragment of the Utrophin A promoter including the first untranslated exon linked to a luciferase reporter gene. Under conditions of low temperature and interferon containing media, the cells remain as myoblasts. These are plated into 96 well plates and cultured in the presence of compound for three days. The level of luciferase is then determined by cell lysis and reading of the light output from the expressed luciferase gene utilising a plate luminometer.
H2K/mdx/Utro A reporter Cell Line Maintenance
The cells were grown at 33° C. in the presence of 10% CO2. To remove the myoblasts for platting, they were incubated with Trypsin EDTA until the monolayer started to detach.
The plates were then incubated at 33° C. in the presence of 10% CO2 for 24 hrs. Compounds were dosed by adding 10 μl of diluted compound to each well giving a final concentration of 10 μM. The plates were then incubated for a further 48 hrs. Cells were then lysed in situ following the manufacture's protocols (Promega Steady-Glo Luciferase Assay System (E2520). Then counted for 10 seconds using a plate luminometer (Victor1420).
Compounds for screening were stored at −20° C. as 10 mM stocks in 100% DMSO until required.
Biological activity as assessed using the luciferase reporter assay in murine H2K cells, and is classified as follows: […]
For orientation: Reporter assays use an easily measured gene product as a stand-in for the process of interest.
On to `CC(C)C(=O)Nc1ccc2oc(-c3ccc4cc(Br)ccc4c3)nc2c1` [Example 413, N-(2-(6-bromonaphthalen-2-yl)benzo[d]oxazol-5-yl)isobutyramide], for which the activity at 10 µM was less than 200%.

For `Nc1ccc2oc(-c3ccc(-c4ccccc4)cc3)nc2c1` [Example 401, 2-(biphenyl-4-yl)benzo[d]oxazol-5-amine], the activity at 10 µM was 301 to 400%.

As to `Clc1ccc(-c2nc3c(ccc4ccccc43)o2)cc1` [Example 409, 2-(4-chlorophenyl)naphtho[1,2-d]oxazole], the activity at 10 µM was more than 401%.

With `CCC(=O)Nc1ccc2oc(-c3ccc(C(F)(F)F)cc3)nc2c1` [Example 124, N-(2-(4-(trifluoromethyl)phenyl)benzo[d]oxazol-5-yl)propionamide], the activity at 10 µM is less than 200%.

As to `Cc1ccc(-c2nc3c([N+](=O)[O-])cccc3o2)cc1` [Example 189, 4-nitro-2-p-tolylbenzo[d]oxazole], the activity at 10 µM is less than 200%.

With `Nc1ccc(-c2nc3ccc(Cl)cc3o2)cc1` [Example 290, 4-(6-chlorobenzo[d]oxazol-2-yl)aniline], the activity at 10 µM is 301 to 400%.

`O=C(Nc1ccc2oc(-c3ccccc3)nc2c1)c1ccncc1` [Example 22, N-(2-phenylbenzo[d]oxazol-5-yl)isonicotinamide]: the activity at 10 µM was less than 200%.

For the molecule `O=C(Nc1ccc2oc(-c3ccc(Cl)cc3)nc2c1)c1cccs1` [Example 103, N-(2-(4-chlorophenyl)benzo[d]oxazol-5-yl)thiophene-2-carboxamide], the activity at 10 µM was less than 200%.

With `Nc1ccc2nc(-c3ccccc3)oc2c1` [Example 155, 2-phenylbenzo[d]oxazol-6-amine], the activity at 10 µM lay in the range of 301 to 400%.

For the molecule `CC(C)S(=O)(=O)Nc1ccc2oc(-c3ccc(Cl)cc3)nc2c1` [Example 261, N-(2-(4-chlorophenyl)benzo[d]oxazol-5-yl)propane-2-sulfonamide], the activity at 10 µM is less than 200%.

Consider `Cc1ccc(-c2nc3cc(NC(=O)CC(F)(F)F)ccc3o2)cc1` [Example 254, 3,3,3-trifluoro-N-(2-p-tolylbenzo[d]oxazol-5-yl)propanamide], for which the activity at 10 µM fell in the range of 201 to 300%.

As for `CC(C)C(=O)Nc1ccc(-c2nc3ccccc3o2)cc1` [Example 454, N-(4-(Benzo[d]oxazol-2-yl)phenyl)isobutyramide], the activity at 10 µM is more than 401%.

In the case of `O=C(Nc1ccc2oc(-c3ccc(Cl)cc3)nc2c1)c1cc(Cl)cc(Cl)c1` [Example 95, 3,5-dichloro-N-(2-(4-chlorophenyl)benzo[d]oxazol-5-yl)benzamide], the activity at 10 µM is less than 200%.

`CCS(=O)(=O)c1ccc2oc(-c3cc(C)cs3)nc2c1` [Example 443, 5-(ethylsulfonyl)-2-(4-methylthiophen-2-yl)benzo[d]oxazole]: the activity at 10 µM is more than 401%.

In the case of `CC(C)NC(=O)Nc1ccc2oc(-c3ccccc3)nc2c1` [Example 241, 1-isopropyl-3-(2-phenylbenzo[d]oxazol-5-yl)urea], the activity at 10 µM was less than 200%.

As for `CCS(=O)(=O)c1ccc2oc(-c3ccc4cc(Br)ccc4c3)nc2c1` [Example 424, 2-(6-bromonaphthalen-2-yl)-5-(ethylsulfonyl)benzo[d]oxazole], the activity at 10 µM is less than 200%.

For `CCCC(=O)Nc1ccc2[nH]c(-c3ccc(C)cc3)nc2c1` [Example 166, N-(2-p-tolyl-1H-benzo[d]imidazol-5-yl)butyramide], the activity at 10 µM is less than 200%.

For `Nc1ccc(-c2ccc3oc(-c4ccc(Cl)cc4)nc3c2)cn1` [Example 338, 5-(2-(4-chlorophenyl)benzo[d]oxazol-5-yl)pyridin-2-amine], the activity at 10 µM was more than 401%.

Consider `CCN(CC)c1ccc(-c2nc3cc(NC(=O)Cc4ccccc4)ccc3o2)cc1` [Example 73, N-(2-(4-(diethylamino)phenyl)benzo[d]oxazol-5-yl)-2-phenylacetamide], for which the activity at 10 µM fell in the range of 201 to 300%.

Turning to `Clc1ccc2nc(-c3ccccc3)oc2c1` [Example 112, 6-chloro-2-phenylbenzo[d]oxazole], the activity at 10 µM was less than 200%.

Turning to `CCN(CC)c1ccc(-c2nc3cc(NC(=O)c4ccc(N(C)C)cc4)ccc3o2)cc1` [Example 67, N-(2-(4-(diethylamino)phenyl)benzo[d]oxazol-5-yl)-4-(dimethylamino)benzamide], the activity at 10 µM lay in the range of 201 to 300%.

Turning to `CCCC(=O)Nc1ccc2[nH]c(-c3ccccc3)nc2c1` [Example 194, N-(2-phenyl-1H-benzo[d]imidazol-5-yl)butyramide], the activity at 10 µM was in the range of 201 to 300%.

For the molecule `Clc1ccc(-c2nc3cc(-c4ccc(Cl)nc4)ccc3o2)cc1` [Example 314, 2-(4-chlorophenyl)-5-(6-chloropyridin-3-yl)benzo[d]oxazole], the activity at 10 µM is less than 200%.

Consider `O=[N+]([O-])c1ccc2oc(SCc3ccc(Cl)cc3)nc2c1` [Example 379, 2-(4-chlorobenzylthio)-5-nitrobenzo[d]oxazole], for which the activity at 10 µM was less than 200%.

Take `O=C(Cc1ccccc1)Nc1ccc2oc(-c3ccccc3)nc2c1` [Example 33, 2-phenyl-N-(2-phenylbenzo[d]oxazol-5-yl)acetamide]: the activity at 10 µM was less than 200%.

For the molecule `O=C(Nc1ccc2oc(-c3ccccc3)nc2c1)c1ccco1` [Example 13, N-(2-phenylbenzo[d]oxazol-5-yl)furan-2-carboxamide], the activity at 10 µM was in the range of 201 to 300%.

Consider `O=C(Nc1ccc2oc(-c3ccc(Cl)cc3)nc2c1)C(F)(F)F` [Example 211, N-(2-(4-chlorophenyl)benzo[d]oxazol-5-yl)-2,2,2-trifluoroacetamide], for which the activity at 10 µM lay in the range of 201 to 300%.

As for `CCN(CC)c1ccc(-c2nc3cc(NC(=O)CCc4ccccc4)ccc3o2)cc1` [Example 74, N-(2-(4-(diethylamino)phenyl)benzo[d]oxazol-5-yl)-3-phenylpropanamide], the activity at 10 µM was less than 200%.

On to `CC(C)C(=O)Nc1ccc2oc(-c3c(F)cccc3Cl)nc2c1` [Example 341, N-(2-(2-chloro-6-fluorophenyl)benzo[d]oxazol-5-yl)isobutyramide], for which the activity at 10 µM was less than 200%.

On to `O=[N+]([O-])c1ccc2oc(-c3ccco3)nc2c1` [Example 366, 2-(furan-2-yl)-5-nitrobenzo[d]oxazole], for which the activity at 10 µM is less than 200%.

For the molecule `COCCC(=O)Nc1ccc2oc(-c3ccc(C)cc3)nc2c1` [Example 160, 3-methoxy-N-(2-p-tolylbenzo[d]oxazol-5-yl)propanamide], the activity at 10 µM is more than 401%.

`CCS(=O)(=O)c1ccc2oc(-c3ccc4ccccc4c3O)nc2c1` [Example 437, 2-(5-(ethylsulfonyl)benzo[d]oxazol-2-yl)naphthalen-1-ol]: the activity at 10 µM was more than 401%.

As for `c1ccc(CNc2ccc3oc(-c4ccccc4)nc3c2)cc1` [Example 156, N-benzyl-2-phenylbenzo[d]oxazol-5-amine], the activity at 10 µM lay within 301 to 400%.

The same test, now with this note: luciferase reporter assay in murine H2K cells; classified relative to control.
For the molecule `Nc1ccc(-c2nc3ccc(N)cc3o2)cc1` [Example 544], the Activity result is “++ (Between 201% and 300% relative to control)”.

For `O=[N+]([O-])c1ccc2[nH]c(-c3ccco3)nc2c1` [Example 508], the Activity result was “+ (Up to 200% relative to control)”.

For the molecule `Cn1c(-c2ccc(N)cc2)nc2cc(N)ccc21` [Example 490], the Activity entry is reported as “+ (Up to 200% relative to control)”.

`COc1ccc(-c2nc3ccccc3s2)cc1O` [Example 596]: the Activity entry is “++++ (Above 401% relative to control)”.

For the molecule `CCOc1ccc(-c2nc3cc(N)ccc3o2)cc1` [Example 549], the Activity entry is recorded as “+ (Up to 200% relative to control)”.

On to `CCc1ccc2oc(-c3ccc(N)cc3)nc2c1` [Example 553], for which the Activity result is “++++ (Above 401% relative to control)”.

For the molecule `CCn1c(C)nc2cc(C(=O)Nc3ccccc3)ccc21` [Example 615], the Activity result is “++++ (Above 401% relative to control)”.

Regarding `COc1cccc(-c2nc3ccccc3[nH]2)c1` [Example 600], the Activity result is “++ (Between 201% and 300% relative to control)”.

As to `COc1cccc(-c2nc3ccccc3s2)c1` [Example 606], the Activity entry is “+++ (Between 301% and 400% relative to control)”.

On to `Cc1ccc2nc(-c3ccc(N)cc3)sc2c1` [Example 664], for which the Activity entry was “++ (Between 201% and 300% relative to control)”.

Take `CC(=O)Nc1cccc(-c2nc3ccccc3[nH]2)c1` [Example 503]: the Activity result was “+ (Up to 200% relative to control)”.

In the case of `CCc1ccc2oc(-c3cccc(NC(C)=O)c3)nc2c1` [Example 642], the Activity result is “+++ (Between 301% and 400% relative to control)”.

`O=C(Nc1nc2ccccc2s1)c1cc(Br)ccc1Cl` [Example 671]: the Activity result is “++ (Between 201% and 300% relative to control)”.

`Cc1ccc(C(=O)Nc2nc3ccccc3s2)c(Cl)c1` [Example 567]: the Activity entry is listed as “+ (Up to 200% relative to control)”.

Consider `c1ccc(NNc2nc3ccccc3s2)cc1` [Example 552], for which the Activity result is given as “+ (Up to 200% relative to control)”.

Turning to `O=[N+]([O-])c1ccc(-c2nc3ccccc3o2)cc1` [Example 477], the Activity result is listed as “+ (Up to 200% relative to control)”.

For `COc1ccccc1-c1nc2ccccc2s1` [Example 522], the Activity entry is on record as “+ (Up to 200% relative to control)”.

Turning to `Cc1cc2nc(-c3cc(N)ccc3O)oc2cc1C` [Example 559], the Activity entry is “+++ (Between 301% and 400% relative to control)”.
